Source: PMC4281142, “Fomiroid A, a Novel Compound from the Mushroom Fomitopsis nigra, Inhibits NPC1L1-Mediated Cholesterol Uptake via a Mode of Action Distinct from That of Ezetimibe” (PLoS ONE, 2014)

Key:
NPC1L1 (rNPC1L1) [1] = biological target: T1, NPC1L1 (rNPC1L1) (Rattus norvegicus, UniProt Q6T3U3); experiment: competitive radioligand binding, [3H]ezetimibe glucuronide, HEK293/rNPC1L1 membranes
T1 construct: rat NPC1L1 (GenBank AY437867), membranes from stably expressing HEK293 cells

NPC1L1 (rNPC1L1) [2] = biological target: T1, NPC1L1 (rNPC1L1); experiment: competitive radioligand binding, [3H]ezetimibe glucuronide, HEK293/rNPC1L1 membranes (two-site fit; low-affinity site […])

O=C1[C@H](CC[C@H](O)c2ccc(F)cc2)[C@@H](c2ccc(O)cc2)N1c1ccc(F)cc1 [ezetimibe]
IC50 (NPC1L1 (rNPC1L1) [1]): 332 ± 4.2 nM

CC(C)=CCCC(CO)C1CC(O)C2(C)C3=C(CCC12C)C1(C)CCC(=O)C(C)(C)C1CC3 (centres unmarked) [fomiroid A, 15, 21-dihydroxylanosta-8, 24-dien-3-one]
IC50 (NPC1L1 (rNPC1L1) [2]): 4830 ± 200 nM
